According to patent US12583815B2, “Inhibitors of YAP/TAZ-TEAD oncoproteins, synthesis and use thereof” (BRIDGENE BIOSCIENCES, INC., priority 2020, dated 2026):

Target: T1, TEAD1 (Homo sapiens, UniProt P28347)
T1 construct: endogenous in cells; host or cells: MCF-7
Test: TEAD1-Luciferase reporter assay (MCF-7 cell-based TEAD1-Luc assay)
Details: cells treated with compound overnight, luciferase chemiluminescence readout
Experimental: TEAD1-Luciferase Reporter Assay to Characterize the Pharmacological Properties of the Tead1 Covalent Inhibitors
FIG. 1 is a schematic illustration of the mechanism of TEAD1 inhibition by the disclosed compounds, which is the theoretical basis for the development of a TEAD-YAP/TAZ cell-based functional assay to characterize the pharmacological properties of the synthesized inhibitor compounds. The MCF-7 cell-based TEAD1-Luc assay for the IC50 measurement was performed as below. Compounds 2, 4, 5, and 7, representing different chemical scaffolds, were characterized. About 200 μL of culture medium was placed in each of the 10^4 cell/well in a 96-well plate. The next day the cells were treated with the synthesized compounds for overnight. The luciferase activity was measured with a chemiluminescent assay kit. Specifically, the plate was equilibrated at room temperature. […] and 50 μL of the medium was left inside. To each well was added 50 μL Luciferase reagents. The plates were gently rocked for more than about 15 minutes at room temperature. The luminescence signal was then read and recorded. Table 2 below summarizes the measured IC50 values for the disclosed compounds.

T1 sequence (P28347 whole entry): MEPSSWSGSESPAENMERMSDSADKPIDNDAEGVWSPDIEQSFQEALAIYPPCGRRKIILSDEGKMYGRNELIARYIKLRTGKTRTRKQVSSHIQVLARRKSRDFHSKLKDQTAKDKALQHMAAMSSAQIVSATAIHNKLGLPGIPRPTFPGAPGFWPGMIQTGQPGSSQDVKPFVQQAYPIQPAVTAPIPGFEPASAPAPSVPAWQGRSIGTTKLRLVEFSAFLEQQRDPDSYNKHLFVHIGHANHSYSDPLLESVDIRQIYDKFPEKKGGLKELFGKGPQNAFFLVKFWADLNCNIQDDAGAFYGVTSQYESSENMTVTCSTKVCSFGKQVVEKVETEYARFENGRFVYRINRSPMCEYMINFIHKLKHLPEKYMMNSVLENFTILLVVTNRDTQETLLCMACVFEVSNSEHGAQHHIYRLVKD

Question: Which IC50 does the source give for C=CC(=O)Nc1cccc(Oc2cccc(OC)c2)c1 [Compound 9, N-(3-(3-methoxyphenoxy)phenyl)acrylamide] here?
Answer: ≤ 100 nM

Question: How did the IC50 turn out when C=CC(=O)Nc1ccc(-c2cc(C3CC3)on2)cc1 [Compound 30, N-(4-(5-cyclopropylisoxazol-3-yl)phenyl)acrylamide] was run?
Answer: 100 to 5000 nM

Question: With C=CC(=O)Nc1ccc2c(c1)CCc1c-2noc1CCCC [Compound 27, N-(3-butyl-4,5-dihydronaphtho[1,2-c]isoxazol-7-yl)acrylamide] as the compound, how does the IC50 read?
Answer: 100 to 5000 nM

Question: For C=CC(=O)Nc1ccc2c(c1)CCN(CCCCC)C2=O [Compound 50, N-(1-oxo-2-pentyl-1,2,3,4-tetrahydroisoquinolin-6-yl)acrylamide], which IC50 is on record?
Answer: 100 to 5000 nM

Question: Which IC50 does the source give for C=CC(=O)Nc1ccc2c(c1)CCC/C2=N\OCC(C)C [Compound 49, (E)-N-(5-(isobutoxyimino)-5,6,7,8-tetrahydronaphthalen-2-yl)acrylamide] here?
Answer: ≤ 100 nM

Question: How did the IC50 turn out when C=C(F)C(=O)Nc1ccc2c(c1)CCC/C2=N\OCCCCC [Compound 29, (E)-2-fluoro-N-(5-((pentyloxy)imino)-5,6,7,8-tetrahydronaphthalen-2-yl)acrylamide] was run?
Answer: 100 to 5000 nM

Question: C=CC(=O)Nc1ccc(-c2cc(C(F)(F)F)on2)c(C)c1 [Compound 22, N-(3-methyl-4-(5-(trifluoromethyl)isoxazol-3-yl)phenyl)acrylamide] was tested. Which IC50 did it give?
Answer: ≤ 100 nM

Question: C=CC(=O)Nc1ccc(-c2cc(C(F)(F)F)ccn2)cc1 [Compound 51, N-(4-(4-(trifluoromethyl)pyridin-2-yl)phenyl)acrylamide] was tested. Which IC50 did it give?
Answer: 100 to 5000 nM

Question: Which IC50 does the source give for C=CC(=O)NC1CCC(Oc2cccc(C(F)(F)F)c2)C1 (stereo not drawn) [Compound 45, N-(3-(3-(trifluoromethyl)phenoxy)cyclopentyl)acrylamide] here?
Answer: 100 to 5000 nM

Question: How did the IC50 turn out when C#Cc1cccc(Oc2cccc(NC(=O)C=C)c2)c1 [Compound 2] was run?
Answer: 100 to 5000 nM

Question: With C=CC(=O)Nc1cccc(Oc2csc(C(F)(F)F)c2)c1 [Compound 10, N-(3-((5-(trifluoromethyl)thiophen-3-yl)oxy)phenyl)acrylamide] as the compound, how does the IC50 read?
Answer: ≤ 100 nM

Question: How did the IC50 turn out when C=CC(=O)Nc1ccc2c(c1)CCC/C2=N\OCC [Compound 47, (E)-N-(5-(ethoxyimino)-5,6,7,8-tetrahydronaphthalen-2-yl)acrylamide] was run?
Answer: ≤ 100 nM
